Reference: patent US9023809B2, “Phenylalanine dipeptide derivatives, compositions and use thereof” (The Key Laboratory of Chemistry For Natural Products of …, priority 2008, dated 2015)
In brackets after ≈: the same amount, converted by molar mass. Several values for one entry are separate records, joined by “and”; a condition that tells them apart may be missing. Equal entries are not always repeated. *1 amine or outer side, *2 acyl side, *3 side chain or, on linkers, in order; H or OH if unused. Where a SMILES comes first, the peptide text is derived from it. [ ]: non-standard residue; d: D form. The star is where a group is joined. Tyr(3-NO2) = N[C@@H](Cc1ccc(O)c([N+](=O)[O-])c1)C(=O)O; Phe(4-NO2) = N[C@@H](Cc1ccc([N+](=O)[O-])cc1)C(=O)O; Phe(4-NH2) = Nc1ccc(C[C@H](N)C(=O)O)cc1; Suc = O=C(CCC(=O)[*:2])[*:1]; 4Abz = Nc1ccc(C(=O)O)cc1; Propionyl = CCC(=O)*; Bz = O=C(c1ccccc1)*; ClAc = O=C(CCl)*

Tests used:
[1] = tested on: 2.2.15 cells; test: Cytotoxicity (TC50, median toxic concentration) in 2.2.15 cells; type: cell-based
Experimental: Cell control wells were simultaneously set up. […] IC50 and SI were calculated, respectively.

melting point | Structure (SMILES) | TC50 [1]
225.5 to 227 °C | O=C(N[C@@H](Cc1ccc(O)cc1)C(=O)N[C@H](CO)Cc1ccccc1)c1cccc([N+](=O)[O-])c1 | –
221.5 to 222 °C | COC(=O)[C@H](Cc1ccc(NC(C)=O)cc1)NC(=O)[C@H](Cc1ccccc1)NC(=O)c1ccc(C)cc1 | –
– | O=C([O-])CCC(=O)Nc1ccc(C(=O)N[C@@H](Cc2ccccc2)C(=O)N[C@@H](Cc2ccccc2)C(=O)[O-])cc1.[Na+].[Na+] [Example 92, N-[N-4-(3-carboxyl-propionamido)-benzoyl-L-phenylalanyl]-L-phenylalanine sodium salt] ({Suc-4Abz}-Phe-Phe-OH) | 379.36 µg/mL
– | O=C(N[C@@H](Cc1ccc(O)cc1)C(=O)N[C@@H](Cc1ccccc1)C(=O)O)c1ccccc1 [Example 93, N-(N-benzoyl-L-tyrosyl)-L-phenylalanine] (Bz-Tyr-Phe-OH) | 577.35 µg/mL (≈ 1330 µM)
– | COC(=O)[C@H](Cc1ccc(O)cc1)NC(=O)[C@H](Cc1ccccc1)NC(=O)c1ccc(C)cc1 [Example 17, methyl N-(N-^4-methyl-benzoyl-L-phenylalanyl)-L-tyrosinate] | 465.23 µg/mL (≈ 1010 µM)
151 to 153 °C | COC(=O)[C@H](Cc1ccccc1)NC(=O)[C@H](Cc1ccccc1)NC(=O)c1ccc(O)cc1 | –
– | O=C(N[C@@H](Cc1ccccc1)C(=O)N[C@H](CO)Cc1ccccc1)c1ccccc1 [Example 02, N-(N-benzoyl-L-phenylalanyl)-L-phenylalaninol] | 231.12 µg/mL (≈ 574 µM)
– | CCC(=O)Nc1ccc(C[C@H](NC(=O)c2ccc(Cl)cc2)C(=O)N[C@@H](Cc2ccccc2)C(=O)OC)cc1 [Example 70, methyl N-[N-(4-chloro-benzoyl)-4-propionamido-L-phenylalanyl]-L-phenylalaninate] | 17.81 µg/mL (≈ 33.2 µM)
224.5 to 225.5 °C | COC(=O)[C@H](Cc1ccc([N+](=O)[O-])cc1)NC(=O)[C@H](Cc1ccccc1)NCc1ccncc1 | –
– | COC(=O)[C@H](Cc1ccccc1)NC(=O)[C@H](Cc1ccccc1)NC(=O)c1ccc(NC(=O)CN2CCCC2)cc1 [Example 82, methyl N-{N-[4-(1-pyrrolidyl)acetamido-benzoyl]-L-phenylalanyl}-L-phenylalaninate] | 59.19 µg/mL (≈ 106 µM)
– | COC(=O)[C@H](Cc1ccccc1)NC(=O)[C@H](Cc1ccccc1)NC(=O)c1ccc(NC(=O)CN(C)C)cc1 [Example 81, methyl N-[N-4-(dimethylamino-acetamido)-benzoyl-L-phenylalanyl]-L-phenylalaninate] | 58.64 µg/mL (≈ 111 µM)
222.5 to 224.5 °C | COC(=O)[C@H](Cc1ccccc1)NC(=O)[C@H](Cc1ccccc1)NC(=O)c1ccc(NC(=O)CCl)cc1 ({ClAc-4Abz}-Phe-Phe-OMe) | –
– | CCC(=O)Nc1ccc(C[C@H](NC(=O)[C@H](Cc2ccccc2)NC(=O)c2ccccc2)C(=O)O)cc1 [Example 94, N-(N-benzoyl-L-phenylalanyl)-4-propionamido-L-phenylalanine] (Bz-Phe-[Phe(4-NH2)](Propionyl)-OH) | 561.21 µg/mL (≈ 1150 µM)
200 to 202 °C | COC(=O)[C@H](Cc1ccccc1)NC(=O)[C@H](Cc1ccc(O)cc1)NC(=O)c1ccccc1 (Bz-Tyr-Phe-OMe) | –
– | O=C(N[C@@H](Cc1ccccc1)C(=O)N[C@H](CO)Cc1ccccc1)c1ccccc1Cl [Example 08, N-(N-2-chloro-benzoyl-L-phenylalanyl)-L-phenylalaninol] | 166.70 µg/mL (≈ 382 µM)
– | CC(=O)Nc1ccc(C[C@H](NC(=O)[C@H](Cc2ccc(O)cc2)NC(=O)c2ccc(C)cc2)C(=O)O)cc1 [Example 96, N-(N-4-methyl-benzoyl-L-tyrosyl)-4-acetamido-L-phenylalanine] | 199.67 µg/mL (≈ 397 µM)
– | COC(=O)[C@H](Cc1ccccc1)NC(=O)[C@H](Cc1ccccc1)NC(=O)c1ccccc1 [Example 01, methyl N-(N-benzoyl-L-phenylalanyl)-L-phenylalaninate] (Bz-Phe-Phe-OMe) | 1101.11 µg/mL (≈ 2560 µM)
– | O=C(O)CCC(=O)OC[C@H](Cc1ccccc1)NC(=O)[C@H](Cc1ccccc1)NC(=O)c1ccccc1 [Example 56, N-(N-benzoyl-L-phenylalanyl)-O-(3-carboxyl-propionyl)-L-phenylalaninol] | 333.33 µg/mL (≈ 663 µM)
208 to 209.5 °C | COC(=O)[C@H](Cc1ccccc1)NC(=O)[C@H](Cc1ccccc1)NC(=O)c1ccc(NC(C)=O)cc1 (Ac-[4Abz]-Phe-Phe-OMe) | –
216 to 217 °C | COC(=O)[C@H](Cc1ccc(O)cc1)NC(=O)[C@H](Cc1ccccc1)NCc1ccncc1 [Example 46, methyl N-(N-isonicotinyl-L-phenylalanyl)-L-tyrosinate] | –
– | CC(=O)Nc1ccc(C[C@H](NC(=O)[C@H](Cc2ccc(O)cc2)NC(=O)c2ccccc2)C(=O)[O-])cc1.[Na+] [Example 95, N-(N-benzoyl-L-tyrosyl)-4-acetamido-L-phenylalanine sodium salt] (Bz-Tyr-[Phe(4-NH2)](Ac)-OH) | 79.46 µg/mL
201 to 202.5 °C | COC(=O)[C@H](Cc1ccccc1)NC(=O)[C@H](Cc1ccc(O)c([N+](=O)[O-])c1)NC(=O)c1ccccc1 (Bz-[Tyr(3-NO2)]-Phe-OMe) | –
190 to 192.5 °C | COC(=O)[C@H](Cc1ccccc1)NC(=O)[C@H](Cc1ccc(O)cc1)NC(=O)c1ccc(C)cc1 | –
206.5 to 209 °C | COC(=O)[C@H](Cc1ccccc1)NC(=O)[C@H](Cc1ccc(O)cc1)NCc1ccncc1 | –
174 to 175 °C | COC(=O)[C@H](Cc1ccccc1)NC(=O)[C@H](Cc1ccccc1)NCc1ccncc1 | –
– | CN(C)CC(=O)Nc1ccc(C(=O)N[C@@H](Cc2ccccc2)C(=O)N[C@H](CO)Cc2ccccc2)cc1 [Example 76, N-[N-4-(dimethylaino-acetamido)-benzoyl-L-phenylalanyl]-L-phenylalaninol] | 37.04 µg/mL (≈ 73.7 µM)
212 to 214 °C | COC(=O)[C@H](Cc1ccccc1)NC(=O)[C@H](Cc1ccc(O)cc1)NC(=O)c1ccc([N+](=O)[O-])cc1 | –
– | CC(=O)Nc1ccc(C[C@H](NC(=O)c2ccccc2C(=O)[O-])C(=O)N[C@H](CO)Cc2ccccc2)cc1.[Na+] [Example 53, N-[N-(2-carboxyl-benzoyl)-4-acetamido-L-phenylalanyl]-L-phenylalaninol sodium salt] | 354.18 µg/mL
225 to 226 °C | COC(=O)[C@H](Cc1ccccc1)NC(=O)[C@H](Cc1ccc(O)cc1)NC(=O)c1ccc(NC(C)=O)cc1 (Ac-[4Abz]-Tyr-Phe-OMe) | –

Structure (SMILES) | melting point | TC50 [1]
COC(=O)[C@H](Cc1ccc([N+](=O)[O-])cc1)NC(=O)[C@H](Cc1ccc([N+](=O)[O-])cc1)NC(=O)c1ccccc1 [Example 15, methyl N-(N-benzoyl-4-nitro-L-phenylalanyl)-4-nitro-L-phenylalaninate] (Bz-[Phe(4-NO2)]-[Phe(4-NO2)]-OMe) | 220 to 221.5 °C | 45.69 µg/mL (≈ 87.8 µM)
COC(=O)[C@H](Cc1ccccc1)NC(=O)[C@H](Cc1ccc([N+](=O)[O-])cc1)NC(=O)c1ccccc1 [Example 12, methyl N-(N-benzoyl-4-nitro-L-phenylalanyl)-L-phenylalaninate] (Bz-[Phe(4-NO2)]-Phe-OMe) | 202 to 204.5 °C | 388.03 µg/mL (≈ 816 µM)
COC(=O)[C@H](Cc1ccccc1)NC(=O)[C@H](Cc1ccccc1)NC(=O)c1ccccc1Cl [Example 10, methyl N-(N-2-chloro-benzoyl-L-phenylalanyl)-L-phenylalaninate] | 152.5 to 153.5 °C | 288.68 µg/mL (≈ 621 µM)
CCC(=O)Nc1ccc(C[C@H](NC(=O)[C@H](Cc2ccccc2)NC(=O)c2ccccc2)C(=O)OC)cc1 [Example 64, methyl N-(N-benzoyl-L-phenylalanyl)-4-propionamido-L-phenylalaninate] (Bz-Phe-[Phe(4-NH2)](Propionyl)-OMe) | 244.5 to 246 °C | 58.54 µg/mL (≈ 117 µM)
O=C(N[C@@H](Cc1ccccc1)C(=O)N[C@H](CO)Cc1ccc([N+](=O)[O-])cc1)c1ccccc1 [Example 16, N-(N-benzoyl-L-phenylalanyl)-4-nitro-L-phenylalaninol] | 192 to 195 °C | 52.34 µg/mL (≈ 117 µM)
O=C(N[C@@H](Cc1ccc([N+](=O)[O-])cc1)C(=O)N[C@H](CO)Cc1ccccc1)c1ccccc1 [Example 06, N-(N-benzoyl-4-nitro-L-phenylalanyl)-L-phenylalaninol] | 196 to 199 °C | 53.42 µg/mL (≈ 119 µM)
O=C(N[C@H](CO)Cc1ccccc1)[C@H](Cc1ccc(O)cc1)NCc1ccncc1 [Example 47, N-(N-isonicotinyl-L-tyrosyl)-L-phenylalaninol] | 210 to 212 °C | 256.78 µg/mL (≈ 633 µM)
COC(=O)[C@H](Cc1ccc(O)cc1)NC(=O)[C@H](Cc1ccc([N+](=O)[O-])cc1)NC(=O)c1ccc(C)cc1 [Example 18, methyl N-(N-4-methyl-benzoyl-4-nitro-L-phenylalanyl)-L-tyrosinate] | 213 to 215 °C | 45.28 µg/mL (≈ 89.6 µM)
COC(=O)[C@H](Cc1ccccc1)NC(=O)[C@H](Cc1ccccc1)NC(=O)c1cccc(C)c1 [Example 09, methyl N-(N-3-methyl-benzoyl-L-phenylalanyl)-L-phenylalaninate] | 190 to 192 °C | 240.38 µg/mL (≈ 541 µM)
O=C(N[C@@H](Cc1ccccc1)C(=O)N[C@H](CO)Cc1ccccc1)c1ccc(O)cc1 [Example 27, N-(N-4-hydroxyl-benzoyl-L-phenylalanyl)-L-phenylalaninol] | 223 to 225 °C | 441.29 µg/mL and 456.75 µg/mL
COC(=O)[C@H](Cc1ccc(NC(C)=O)cc1)NC(=O)[C@H](Cc1ccccc1)NC(=O)c1ccccc1 [Example 59, methyl N-(N-benzoyl-L-phenylalanyl)-4-acetamido-L-phenylalaninate] (Bz-Phe-[Phe(4-NH2)](Ac)-OMe) | 228 to 229.5 °C | 258.69 µg/mL (≈ 531 µM)
CC(=O)c1ccc(C[C@@H](CO)NC(=O)[C@H](Cc2ccccc2)NC(=O)c2ccccc2)cc1 [Example 69, N-(N-benzoyl-L-phenylalanyl)-4-acetyl-L-phenylalaninol] | 235.5 to 238 °C | 75.46 µg/mL (≈ 170 µM)
